# Experimental data from patent publication US20060041019A1, “Inhibitor of anticancer drug side effect” (priority 2002, published 2006).
# Assays:
# Type in all cases: in vivo
# [1] = test system: Male mouse models (CBA/J) of spontaneous alveolar epithelial hyperplasia; experiment: Hair loss as side effect of adriamycin, Test Example 1; settings: ADM 0.1 mg/kg i.p., eight courses
# Method: (§1) Male mouse models (CBA/J) of spontaneous alveolar epithelial hyperplasia were employed as test animals. These mice develop alveolar epithelial hyperplasia 12 to 15 weeks after birth. Accordingly, they were raised with normal feeds until 19 weeks after birth. […] CPL was mixed with powder feeds (CE-2). The daily dosage of adriamycin (ADM) was 0.1 mg/kg per mouse, and administration was made intraperitoneally once a day for three consecutive days, followed by drug withdrawal for 11 days. This procedure was designated as constituting a single course, and eight courses thereof were conducted.
# (§2) At the time of ADM administration, the body weights of mice were measured and their general conditions were observed. In particular, the occurrence of hair loss was carefully observed. The mice were subjected to autopsy 36 weeks or 37 weeks after birth (with an administration duration of 17 weeks or 18 weeks), and samples were recovered. Tissue blocks were obtained from 3 sites each of the extirpated right and left lungs (6 sites in total), the recovered tissue fragments were fixed, fragments embedded in hydrophilic methacrylate resins were subjected to H-E staining, and the ranges of alveolar epithelial hyperplasia were compared.
# [2] = test system: Mouse models of spontaneous cancer (CBA/J); experiment: Hair loss and whisker loss as side effect of adriamycin, Test Example 4; settings: ADM 0.2 mg/kg i.p. in courses; CPL 0.01% in feed; n = 10 (ADM), 9 (ADM and CPL), 10 (CPL)
# Excerpt: Based on the results attained in Test Examples 2 and 3, hair loss and whisker loss were observed under overcrowded conditions or in the presence of a dominant male. […] Accordingly, only the cage in which the dominant male was not present among the group that had been raised under normal conditions was selected, and the effects of CPL for alleviating side effects of an antitumor agent were examined.
# Thereafter, they were divided into: the group to which an antitumor agent (adriamycin, ADM) had been administered; the group to which CPL-containing feeds had been administered; and the group to which ADM had been administered in combination with CPL, and these groups of mice were raised. The daily dosage of ADM was 0.2 mg/kg per mouse, and administration was made intraperitoneally once a day for 3 consecutive days, followed by drug withdrawal for 11 days. This procedure was designated as constituting a single course and then continued. CPL was mixed with feeds (CE-2) in amounts of 0.01% thereof.
# [3] = test system: alveolar epithelial hyperplasia in male mouse models (CBA/J); experiment: Inhibition of alveolar epithelial hyperplasia, Test Example 1
# Method: as §1
# as §2, with “compared. […]” for “compared.”
# [4] = CPL 0.01% in feed, group sizes n = 7 (CPL), 8 (CPL and ADM), 10 (ADM)
smiles,measurement,setting,value
"COc1cccc2c1C(=O)c1c(O)c3c(c(O)c1C2=O)C[C@@](O)(C(=O)CO)C[C@@H]3O[C@H]1C[C@H](N)[C@H](O)[C@H](C)O1 [ADM, adriamycin]",Individuals with hair loss around the eyeballs and the skin of the upper lips,[1]; 9 out of 10 cases,90%
same,Number of individuals undergoing hair loss around the eyeballs,[1]; [4],9
same,Number of individuals undergoing hair loss at the upper lip,[1]; [4],9
same,Hair loss and whisker loss (number of individuals),[2],4
same,Individuals in which sections with rates of hyperplasia development of 50% or more were observed,"[3]; FIG. 9, as in the group that did not experience administration",all individuals
same,"Sections with rates of hyperplasia development of less than 10%, share of the whole","[3]; lung tissue sections, 6 sites per individual, autopsy 36 or 37 weeks after birth, FIG. 8",8.3%
